Results from patent US8258141B2, “Organic compounds” (Novartis AG, priority 2006, dated 2012).
Where a name gives a salt, the structure may show the parent alone.

Target: adenosine A2A receptor (Homo sapiens, UniProt P29274)
Assay: Adenosine A2A receptor agonist assay, method of L. J. Murphree et al, Molecular Pharmacology 61, 455-462 (2002)
Format: binding
Text: Compounds of formula (I) and formula (II) and their pharmaceutically acceptable salts are useful as pharmaceuticals. In particular, they activate the adenosine A2A receptor, i.e. they act as A2A receptor agonists.

adenosine A2A receptor, sequence (P29274 whole entry): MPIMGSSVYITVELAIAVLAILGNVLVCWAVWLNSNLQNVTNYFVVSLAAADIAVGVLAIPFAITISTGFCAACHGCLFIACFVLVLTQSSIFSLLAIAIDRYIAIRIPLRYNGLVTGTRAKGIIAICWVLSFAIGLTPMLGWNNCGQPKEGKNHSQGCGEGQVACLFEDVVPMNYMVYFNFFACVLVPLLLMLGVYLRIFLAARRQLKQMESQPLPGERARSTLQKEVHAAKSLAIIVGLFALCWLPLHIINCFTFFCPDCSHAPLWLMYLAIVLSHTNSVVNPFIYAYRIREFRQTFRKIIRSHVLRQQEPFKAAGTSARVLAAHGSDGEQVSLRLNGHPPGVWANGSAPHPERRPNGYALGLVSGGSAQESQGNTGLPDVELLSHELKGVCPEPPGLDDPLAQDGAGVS

`N[C@@H]1CCN(c2nc(NCC(c3ccccc3)c3ccccc3)c3ncn([C@@H]4C[C@H](NC(=O)CO)[C@@H](O)[C@H]4O)c3n2)C1` [Example 1, N-{(1S,2R,3S,4R)-4-[2-((R)-3-Amino-pyrrolidin-1-yl)-6-(2,2-diphenyl-ethylamino)-purin-9-yl]-2,3-dihydroxy-cyclopentyl}-2-hydroxy-acetamide trifluoroacetate] gave a Ki of 8.3 nM.

`O=C(CO)N[C@H]1C[C@@H](n2cnc3c(NCC(c4ccccc4)c4ccccc4)nc(C(=O)NCCNC(=O)NC4CCN(c5ccccn5)CC4)nc32)[C@H](O)[C@@H]1O` [Example 14, 9-[(1R,2S,3R,4S)-2,3-Dihydroxy-4-(2-hydroxy-acetylamino)-cyclopentyl]-6-(2,2-diphenyl-ethylamino)-9H-purine-2-carboxylic acid {2-[3-(3,4,5,6-tetrahydro-2H-[1,2′]bipyridinyl-4-yl)-ureido]-ethyl}-amide trifluoroacetate] showed a Ki of 2.5 nM.

`CCC(=O)N[C@H]1C[C@@H](n2cnc3c(NCC(c4ccccc4)c4ccccc4)nc(N4CC[C@@H](NC(=O)NCc5ccncc5)C4)nc32)[C@H](O)[C@@H]1O` [Example 20, N-((1S,2R,3S,4R)-4-{6-(2,2-diphenyl-ethylamino)-2-[(R)-3-(3-pyridin-4-ylmethyl-ureido)-pyrrolidin-1-yl]-purin-9-yl}-2,3-dihydroxy-cyclopentyl)-propionamide trifluoroacetate] was tested, and the Ki was 1.6 nM.

`CCC(=O)N[C@H]1C[C@@H](n2cnc3c(NCC(c4ccccc4)c4ccccc4)nc(N4CC[C@@H](NC(=O)N[C@@H]5CCN(C(=O)c6ccc(C(=O)OC)cc6)C5)C4)nc32)[C@H](O)[C@@H]1O` [Example 36, 4-[(R)-3-(3-{(R)-1-[9-((1R,2S,3R,4S)-2,3-Dihydroxy-4-propionylamino-cyclopentyl)-6-(2,2-diphenyl-ethylamino)-9H-purin-2-yl]-pyrrolidin-3-yl}-ureido)-pyrrolidine-1-carbonyl]-benzoic acid methyl ester] showed a Ki of 3 nM.

In the case of `CCC(=O)N[C@H]1C[C@@H](n2cnc3c(NCC(c4ccccc4)c4ccccc4)nc(N4CC[C@@H](NC(=O)Nc5ccc(OCc6ccccc6)cc5)C4)nc32)[C@H](O)[C@@H]1O` [Example 178, N-{(1S,2R,3S,4R)-4-[2-{(R)-3-[3-(4-Benzyloxy-phenyl)-ureido]-pyrrolidin-1-yl}-6-(2,2-diphenyl-ethylamino)-purin-9-yl]-2,3-dihydroxy-cyclopentyl}-propionamide trifluoroacetate], the Ki is reported as 8 nM.
